Data reported in ChEMBL document CHEMBL4342457, “Clerodane Diterpenoids Isolated from the Leaves of Casearia graveolens” (J Nat Prod, 2020).

Tests used:
A549 [1] = experiment: Cytotoxicity against human A549 cells after 48 hrs by MTT assay; format: functional, cell-based; details: A549, 48 h
HepG2 = experiment: Cytotoxicity against human HepG2 cells after 48 hrs by MTT assay; format: functional, cell-based; details: HepG2, 48 h
A549 [2] = experiment: Induction of apoptosis human A549 cells assessed as live cells at 1 uM after 48 hrs by Annexin V-FITC/PI double staining based flow cytometric analysis (reference value: 88%); format: functional
A549 [3] = experiment: Induction of apoptosis human A549 cells assessed as early apoptotic cells at 1 uM after 48 hrs by Annexin V-FITC/PI double staining based flow cytometric analysis (reference value: 4.3%); format: functional
A549 [4] = experiment: Induction of apoptosis human A549 cells assessed as late apoptotic cells at 1 uM after 48 hrs by Annexin V-FITC/PI double staining based flow cytometric analysis (reference value: 7.4%); format: functional
A549 [5] = experiment: Induction of apoptosis human A549 cells assessed as necrotic cells at 1 uM after 48 hrs by Annexin V-FITC/PI double staining based flow cytometric analysis (reference value: 0.3%); format: functional
A549 [6] = experiment: Induction of apoptosis human A549 cells assessed as live cells at 2 uM after 48 hrs by Annexin V-FITC/PI double staining based flow cytometric analysis (reference value: 88%); format: functional
A549 [7] = experiment: Induction of apoptosis human A549 cells assessed as early apoptotic cells at 2 uM after 48 hrs by Annexin V-FITC/PI double staining based flow cytometric analysis (reference value: 4.3%); format: functional
A549 [8] = experiment: Induction of apoptosis human A549 cells assessed as late apoptotic cells at 2 uM after 48 hrs by Annexin V-FITC/PI double staining based flow cytometric analysis (reference value: 7.4%); format: functional
A549 [9] = experiment: Induction of apoptosis human A549 cells assessed as necrotic cells at 2 uM after 48 hrs by Annexin V-FITC/PI double staining based flow cytometric analysis (reference value: 0.3%); format: functional
A549 [10] = experiment: Induction of apoptosis human A549 cells assessed as live cells at 4 uM after 48 hrs by Annexin V-FITC/PI double staining based flow cytometric analysis (reference value: 88%); format: functional
A549 [11] = experiment: Induction of apoptosis human A549 cells assessed as early apoptotic cells at 4 uM after 48 hrs by Annexin V-FITC/PI double staining based flow cytometric analysis (reference value: 4.3%); format: functional
A549 [12] = experiment: Induction of apoptosis human A549 cells assessed as late apoptotic cells at 4 uM after 48 hrs by Annexin V-FITC/PI double staining based flow cytometric analysis (reference value: 7.4%); format: functional
A549 [13] = experiment: Induction of apoptosis human A549 cells assessed as necrotic cells at 4 uM after 48 hrs by Annexin V-FITC/PI double staining based flow cytometric analysis (reference value: 0.3%); format: functional
A549 [14] = experiment: Induction of apoptosis human A549 cells after 48 hrs by Annexin V-FITC/PI double staining based flow cytometric analysis; format: functional, cell-based
A549 [15] = experiment: Induction of cell cycle arrest in human A549 cells assessed as accumulation at G1 phase at 1 uM incubated for 48 hrs by propidium iodide staining based flow cytometry (reference value: 29.60%); format: functional
A549 [16] = experiment: Induction of cell cycle arrest in human A549 cells assessed as accumulation at G2 phase at 1 uM incubated for 48 hrs by propidium iodide staining based flow cytometry (reference value: 30.41%); format: functional
A549 [17] = experiment: Induction of cell cycle arrest in human A549 cells assessed as accumulation at S phase at 1 uM incubated for 48 hrs by propidium iodide staining based flow cytometry (reference value: 39.99%); format: functional
A549 [18] = experiment: Induction of cell cycle arrest in human A549 cells assessed as accumulation at G1 phase at 1.5 uM incubated for 48 hrs by propidium iodide staining based flow cytometry (reference value: 29.60%); format: functional
A549 [19] = experiment: Induction of cell cycle arrest in human A549 cells assessed as accumulation at G2 phase at 1.5 uM incubated for 48 hrs by propidium iodide staining based flow cytometry (reference value: 30.41%); format: functional
A549 [20] = experiment: Induction of cell cycle arrest in human A549 cells assessed as accumulation at S phase at 1.5 uM incubated for 48 hrs by propidium iodide staining based flow cytometry (reference value: 39.99%); format: functional
A549 [21] = experiment: Induction of cell cycle arrest in human A549 cells assessed as accumulation at G1 phase at 2 uM incubated for 48 hrs by propidium iodide staining based flow cytometry (reference value: 29.60%); format: functional
A549 [22] = experiment: Induction of cell cycle arrest in human A549 cells assessed as accumulation at G2 phase at 2 uM incubated for 48 hrs by propidium iodide staining based flow cytometry (reference value: 30.41%); format: functional
A549 [23] = experiment: Induction of cell cycle arrest in human A549 cells assessed as accumulation at S phase at 2 uM incubated for 48 hrs by propidium iodide staining based flow cytometry (reference value: 39.99%); format: functional

C=C/C(C)=C/C[C@]1(C)[C@H](C)C[C@H](O)[C@@]23C(=C[C@@H](OC(=O)C(C)CC)C[C@@H]12)[C@@H](OC)O[C@H]3OC(C)=O (some centres not stated)
IC50 (A549 [1]): > 10 µM | IC50 (HepG2): > 10 µM

C=C/C(C)=C/C[C@]1(C)[C@H](C)C[C@H](O)[C@@]23C(=C[C@H](OC(=O)C(C)CC)C[C@@H]12)[C@@H](OC)O[C@H]3OC(C)=O (some centres not stated)
IC50 (A549 [1]): > 10 µM | IC50 (HepG2): > 10 µM

C=C/C(C)=C/C[C@]1(C)[C@H](C)C[C@H](O)[C@@]23C(=C[C@H](OC(=O)CC(C)C)C[C@@H]12)[C@@H](OC)O[C@H]3OC(C)=O
IC50 (A549 [1]): > 10 µM | IC50 (HepG2): > 10 µM

C=C/C(C)=C/C[C@]1(C)[C@H](C)C[C@H](O)[C@@]23C(=C[C@@H](OC(C)=O)C[C@@H]12)[C@@H](OC)O[C@H]3OC(C)=O
IC50 (A549 [1]): > 10 µM | IC50 (HepG2): > 10 µM

C=C/C(C)=C/C[C@]1(C)[C@H](C)C[C@H](O)[C@@]23C(=C[C@H](OC(=O)CC(C)C)C[C@@H]12)[C@@H](OC)O[C@H]3OC
IC50 (A549 [1]): > 10 µM | IC50 (HepG2): > 10 µM

C=C/C(C)=C/C[C@]1(C)[C@H](C)C[C@H](O)[C@@]23C(=C[C@H](OC(=O)C(C)C)C[C@@H]12)[C@@H](OC)O[C@H]3OC
IC50 (A549 [1]): > 10 µM | IC50 (HepG2): > 10 µM

C=C/C(C)=C/C[C@]1(C)[C@H](C)C[C@H](O)[C@@]23C(=C[C@H](OC(=O)C(C)C)C[C@@H]12)[C@@H](OC)O[C@@H]3OC(C)=O
IC50 (A549 [1]): > 10 µM | IC50 (HepG2): > 10 µM

C=C/C(C)=C/C[C@]1(C)[C@H](C)C[C@H](O)[C@@]23C(=C[C@H](OC(=O)C(C)C)C[C@@H]12)[C@@H](OC)O[C@H]3OC(C)=O
IC50 (A549 [1]): > 10 µM | IC50 (HepG2): > 10 µM

COC(=O)C[C@](O)(CCCC(C)(C)O)C(=O)O[C@@H]1C(OC)=C[C@]23CCCN2CCc2cc4c(cc2[C@H]13)OCO4 [OMACETAXINE MEPESUCCINATE]
IC50 (A549 [1]): 0.0316 µM | IC50 (HepG2): 0.0345 µM

C=C/C(C)=C/C[C@]1(C)[C@H](C)C[C@H](O)[C@@]23C(=C[C@H](OC(=O)CC(C)C)C[C@@H]12)[C@@H](OC(C)=O)O[C@H]3OC(C)=O
IC50 (A549 [1]): 1.9 µM | IC50 (HepG2): 4.6 µM | Activity (A549 [2]): 74.5% | Activity (A549 [3]): 6.2% | Activity (A549 [4]): 18.2% | Activity (A549 [5]): 1.1% | Activity (A549 [6]): 52.7% | Activity (A549 [7]): 26.7% | Activity (A549 [8]): 19.9% | Activity (A549 [9]): 0.8% | Activity (A549 [10]): 5.4% | Activity (A549 [11]): 15% | Activity (A549 [12]): 74.5% | Activity (A549 [13]): 5.1% | Activity (A549 [14]): Dose-dependent effect | Activity (A549 [15]): 70.25% | Activity (A549 [16]): 9.01% | Activity (A549 [17]): 20.75% | Activity (A549 [18]): 70.31% | Activity (A549 [19]): 4.3% | Activity (A549 [20]): 25.39% | Activity (A549 [21]): 79.44% | Activity (A549 [22]): 5.19% | Activity (A549 [23]): 15.37%
